Laboratory results published in the NIST ThermoML archive (doi:10.1021/je200856f).
Numbers after ± are expanded uncertainties.

Test: mn = molality of the nth substance listed, in mol/kg
Details: 101 kPa, Liquid; for mass density: Vibrating tube method; for electrical conductivity: Wheatstone bridge equipment

Work on `C[N+](C)(C)CCCl.[Cl-]` [2-chloro-N,N,N-trimethylethanaminium chloride] + O yielded a mass density (278.15 K, m1 = 0.0506) of 1001.45 ± 0.23 kg/m3, a mass density (278.15 K, m1 = 0.1009) of 1002.89 ± 0.24 kg/m3 and a mass density (278.15 K, m1 = 0.2364) of 1006.79 ± 0.25 kg/m3. The mass density (278.15 K, m1 = 0.501) was 1013.92 ± 0.28 kg/m3, the mass density (278.15 K, m1 = 0.6523) was 1017.88 ± 0.29 kg/m3 and the mass density (278.15 K, m1 = 0.7529) was 1020.46 ± 0.3 kg/m3. The mass density (278.15 K, m1 = 1.2) was 1031.18 ± 0.35 kg/m3, the mass density (278.15 K, m1 = 1.497) was 1038.13 ± 0.37 kg/m3 and the mass density (278.15 K, m1 = 1.986) was 1048.24 ± 0.42 kg/m3. For the same compound, the viscosity (278.15 K, m1 = 0.0236) was 1.526 ± 0.048 mPa·s, the viscosity (278.15 K, m1 = 0.0464) was 1.536 ± 0.049 mPa·s and the viscosity (278.15 K, m1 = 0.0994) was 1.555 ± 0.049 mPa·s. It also gave a viscosity (278.15 K, m1 = 0.2464) of 1.61 ± 0.051 mPa·s, a viscosity (278.15 K, m1 = 0.3552) of 1.656 ± 0.052 mPa·s and a viscosity (278.15 K, m1 = 0.499) of 1.712 ± 0.054 mPa·s. It also gave a viscosity (278.15 K, m1 = 0.6479) of 1.778 ± 0.056 mPa·s, a viscosity (278.15 K, m1 = 0.7493) of 1.815 ± 0.057 mPa·s and a viscosity (278.15 K, m1 = 0.9041) of 1.914 ± 0.061 mPa·s. The viscosity (278.15 K, m1 = 0.9927) was 1.933 ± 0.061 mPa·s, the viscosity (278.15 K, m1 = 1.176) was 2.01 ± 0.064 mPa·s and the viscosity (278.15 K, m1 = 1.542) was 2.298 ± 0.073 mPa·s. The viscosity (278.15 K, m1 = 2.148) was 2.612 ± 0.083 mPa·s, the mass density (288.15 K, m1 = 0.0506) was 1000.52 ± 0.23 kg/m3 and the mass density (288.15 K, m1 = 0.1009) was 1001.9 ± 0.24 kg/m3. The mass density (288.15 K, m1 = 0.2364) was 1005.65 ± 0.25 kg/m3, the mass density (288.15 K, m1 = 0.501) was 1012.48 ± 0.27 kg/m3 and the mass density (288.15 K, m1 = 0.6523) was 1016.28 ± 0.29 kg/m3. The mass density (288.15 K, m1 = 0.7529) was 1018.75 ± 0.3 kg/m3, the mass density (288.15 K, m1 = 1.2) was 1029.02 ± 0.34 kg/m3 and the mass density (288.15 K, m1 = 1.497) was 1035.68 ± 0.37 kg/m3. For the same compound, the mass density (288.15 K, m1 = 1.986) was 1045.39 ± 0.41 kg/m3, the viscosity (288.15 K, m1 = 0.0236) was 1.148 ± 0.036 mPa·s and the viscosity (288.15 K, m1 = 0.0464) was 1.156 ± 0.037 mPa·s. The viscosity (288.15 K, m1 = 0.0994) was 1.172 ± 0.037 mPa·s, the viscosity (288.15 K, m1 = 0.2464) was 1.211 ± 0.038 mPa·s and the viscosity (288.15 K, m1 = 0.3552) was 1.241 ± 0.039 mPa·s. For the same compound, the viscosity (288.15 K, m1 = 0.499) was 1.286 ± 0.041 mPa·s, the viscosity (288.15 K, m1 = 0.6479) was 1.335 ± 0.042 mPa·s and the viscosity (288.15 K, m1 = 0.7493) was 1.362 ± 0.043 mPa·s. It also gave a viscosity (288.15 K, m1 = 0.9041) of 1.433 ± 0.045 mPa·s, a viscosity (288.15 K, m1 = 0.9927) of 1.447 ± 0.046 mPa·s and a viscosity (288.15 K, m1 = 1.176) of 1.502 ± 0.048 mPa·s. For the same compound, the viscosity (288.15 K, m1 = 1.542) was 1.708 ± 0.054 mPa·s, the viscosity (288.15 K, m1 = 2.148) was 1.932 ± 0.062 mPa·s and the mass density (298.15 K, m1 = 0.0506) was 998.426 ± 0.23 kg/m3. For the same compound, the mass density (298.15 K, m1 = 0.1009) was 999.762 ± 0.23 kg/m3, the mass density (298.15 K, m1 = 0.2364) was 1003.4 ± 0.25 kg/m3 and the mass density (298.15 K, m1 = 0.501) was 1010.02 ± 0.27 kg/m3. The mass density (298.15 K, m1 = 0.6523) was 1013.7 ± 0.29 kg/m3, the mass density (298.15 K, m1 = 0.7529) was 1016.09 ± 0.29 kg/m3 and the mass density (298.15 K, m1 = 1.2) was 1026.04 ± 0.34 kg/m3. It also gave a mass density (298.15 K, m1 = 1.497) of 1032.48 ± 0.36 kg/m3, a mass density (298.15 K, m1 = 1.986) of 1041.87 ± 0.41 kg/m3 and an electrical conductivity (298.15 K, m1 = 0.0277) of 0.265 ± 0.003 S/m. It also gave an electrical conductivity (298.15 K, m1 = 0.0514) of 0.49 ± 0.005 S/m, an electrical conductivity (298.15 K, m1 = 0.1003) of 0.898 ± 0.009 S/m and an electrical conductivity (298.15 K, m1 = 0.2497) of 1.97 ± 0.02 S/m. The electrical conductivity (298.15 K, m1 = 0.3502) was 2.58 ± 0.03 S/m, the electrical conductivity (298.15 K, m1 = 0.5001) was 3.36 ± 0.04 S/m and the electrical conductivity (298.15 K, m1 = 0.6509) was 4.1 ± 0.04 S/m. For the same compound, the electrical conductivity (298.15 K, m1 = 0.7498) was 4.51 ± 0.05 S/m, the electrical conductivity (298.15 K, m1 = 0.8997) was 5.07 ± 0.05 S/m and the electrical conductivity (298.15 K, m1 = 0.9998) was 5.42 ± 0.06 S/m. For the same compound, the electrical conductivity (298.15 K, m1 = 1.212) was 6.08 ± 0.06 S/m, the electrical conductivity (298.15 K, m1 = 1.507) was 6.81 ± 0.07 S/m and the electrical conductivity (298.15 K, m1 = 1.998) was 7.67 ± 0.08 S/m. For the same compound, the viscosity (298.15 K, m1 = 0.0236) was 0.907 ± 0.029 mPa·s, the viscosity (298.15 K, m1 = 0.0464) was 0.913 ± 0.029 mPa·s and the viscosity (298.15 K, m1 = 0.0994) was 0.924 ± 0.029 mPa·s. The viscosity (298.15 K, m1 = 0.2464) was 0.955 ± 0.03 mPa·s, the viscosity (298.15 K, m1 = 0.3552) was 0.977 ± 0.031 mPa·s and the viscosity (298.15 K, m1 = 0.499) was 1.012 ± 0.032 mPa·s. For the same compound, the viscosity (298.15 K, m1 = 0.6479) was 1.047 ± 0.033 mPa·s, the viscosity (298.15 K, m1 = 0.7493) was 1.069 ± 0.034 mPa·s and the viscosity (298.15 K, m1 = 0.9041) was 1.124 ± 0.036 mPa·s. The viscosity (298.15 K, m1 = 0.9927) was 1.133 ± 0.036 mPa·s, the viscosity (298.15 K, m1 = 1.176) was 1.173 ± 0.037 mPa·s and the viscosity (298.15 K, m1 = 1.542) was 1.292 ± 0.041 mPa·s. The viscosity (298.15 K, m1 = 2.148) was 1.493 ± 0.048 mPa·s, the mass density (308.15 K, m1 = 0.0506) was 995.387 ± 0.23 kg/m3 and the mass density (308.15 K, m1 = 0.1009) was 996.694 ± 0.23 kg/m3. It also gave a mass density (308.15 K, m1 = 0.2364) of 1000.25 ± 0.24 kg/m3, a mass density (308.15 K, m1 = 0.501) of 1006.72 ± 0.27 kg/m3 and a mass density (308.15 K, m1 = 0.6523) of 1010.32 ± 0.28 kg/m3. It also gave a mass density (308.15 K, m1 = 0.7529) of 1012.65 ± 0.29 kg/m3, a mass density (308.15 K, m1 = 1.2) of 1022.36 ± 0.34 kg/m3 and a mass density (308.15 K, m1 = 1.497) of 1028.63 ± 0.36 kg/m3. For the same compound, the mass density (308.15 K, m1 = 1.986) was 1037.78 ± 0.4 kg/m3, the viscosity (308.15 K, m1 = 0.0236) was 0.711 ± 0.023 mPa·s and the viscosity (308.15 K, m1 = 0.0464) was 0.714 ± 0.023 mPa·s. It also gave a viscosity (308.15 K, m1 = 0.0994) of 0.722 ± 0.023 mPa·s, a viscosity (308.15 K, m1 = 0.2464) of 0.757 ± 0.024 mPa·s and a viscosity (308.15 K, m1 = 0.3552) of 0.77 ± 0.025 mPa·s. The viscosity (308.15 K, m1 = 0.499) was 0.793 ± 0.025 mPa·s, the viscosity (308.15 K, m1 = 0.6479) was 0.831 ± 0.026 mPa·s and the viscosity (308.15 K, m1 = 0.7493) was 0.833 ± 0.027 mPa·s. The viscosity (308.15 K, m1 = 0.9041) was 0.879 ± 0.028 mPa·s, the viscosity (308.15 K, m1 = 0.9927) was 0.89 ± 0.028 mPa·s and the viscosity (308.15 K, m1 = 1.176) was 0.915 ± 0.029 mPa·s. The viscosity (308.15 K, m1 = 1.542) was 1.005 ± 0.032 mPa·s, the viscosity (308.15 K, m1 = 2.148) was 1.158 ± 0.037 mPa·s and the mass density (318.15 K, m1 = 0.0506) was 991.452 ± 0.23 kg/m3. For the same compound, the mass density (318.15 K, m1 = 0.1009) was 992.837 ± 0.23 kg/m3, the mass density (318.15 K, m1 = 0.2364) was 996.273 ± 0.24 kg/m3 and the mass density (318.15 K, m1 = 0.501) was 1002.68 ± 0.27 kg/m3. For the same compound, the mass density (318.15 K, m1 = 0.6523) was 1006.2 ± 0.28 kg/m3, the mass density (318.15 K, m1 = 0.7529) was 1008.52 ± 0.29 kg/m3 and the mass density (318.15 K, m1 = 1.2) was 1018.06 ± 0.33 kg/m3. It also gave a mass density (318.15 K, m1 = 1.497) of 1024.21 ± 0.35 kg/m3, a mass density (318.15 K, m1 = 1.986) of 1033.17 ± 0.4 kg/m3 and a viscosity (318.15 K, m1 = 0.0236) of 0.596 ± 0.019 mPa·s. The viscosity (318.15 K, m1 = 0.0464) was 0.595 ± 0.019 mPa·s, the viscosity (318.15 K, m1 = 0.0994) was 0.602 ± 0.019 mPa·s and the viscosity (318.15 K, m1 = 0.2464) was 0.645 ± 0.021 mPa·s. It also gave a viscosity (318.15 K, m1 = 0.3552) of 0.66 ± 0.021 mPa·s, a viscosity (318.15 K, m1 = 0.499) of 0.661 ± 0.021 mPa·s and a viscosity (318.15 K, m1 = 0.6479) of 0.694 ± 0.022 mPa·s. It also gave a viscosity (318.15 K, m1 = 0.7493) of 0.691 ± 0.022 mPa·s, a viscosity (318.15 K, m1 = 0.9041) of 0.733 ± 0.023 mPa·s and a viscosity (318.15 K, m1 = 0.9927) of 0.75 ± 0.024 mPa·s. For the same compound, the viscosity (318.15 K, m1 = 1.176) was 0.759 ± 0.024 mPa·s, the viscosity (318.15 K, m1 = 1.542) was 0.835 ± 0.027 mPa·s and the viscosity (318.15 K, m1 = 2.148) was 0.948 ± 0.03 mPa·s.
